Tested on: gilts
Experiment: Example 5: ovulation monitored by transrectal ultrasonography after 100, 200 or 400 mcg triptorelin gel intravaginally at 120 h after MATRIX withdrawal
Format: in vivo, swine
Conditions: for Percentage ovulated by 48 hours: blood-sampled subpopulation; for % of Sows Ovulating: raw average, PTK 2-07
Experimental: All gilts were individually fed MATRIX® as a top-dress for 14 or 15 days at the recommended rate of 15 mg/gilt/day. Gilts were withdrawn from MATRIX® feeding (last top-dress in the morning on Day 0) and allocated to each of the following treatments. Controls were vehicle gel treated (vehicle gel without triptorelin) at 120 (+/−2) hours following MATRIX® withdrawal (last top dress). The other gilts were given 100, 200 or 400 mcg triptorelin as the acetate in a methylcellulose gel formulation 120 (+/−2) hours following MATRIX® withdrawal. The four treatments were: • 1. Vehicle gel (VG): vehicle gel without triptorelin at 120 (+/−2) hours after MATRIX® withdrawal. • 2. TG 100: 100 mcg (2 mL 50 mcg/mL) triptorelin gel at 120 (+/−2) hours after MATRIX® withdrawal. • 3. TG 200: 200 mcg (2 mL 100 mcg/mL) triptorelin gel at 120 (+/−2) hours after MATRIX® withdrawal. • 4. TG 400: 400 mcg (2 mL 200 mcg/mL) triptorelin gel at 120 (+/−2) hours after MATRIX® withdrawal.
Triptorelin (pGlu-His-Trp-Ser-Tyr-D-Trp-Leu-Arg-Pro-Gly-NH2) was supplied in the acetate form, from Bachem, Torrance, Calif. (Item H-4075 CGMP grade). Triptorelin gel (100-400 mcg/2 mL dose) was formulated by Argenta (Auckland, NZ) in a gel composed of Methocel Premium A4000 (Dow Chemical), citrate buffer (pH 5.5), NaCl, methionine, and methyl and propyl parabens. Fifty-four milliliters of triptorelin gel (100 mcg triptorelin acetate/mL) was packaged in Amber Borosilicate Glass Serum Vials (610206-50) with a Gray Butyl Pharmaceutical Serum Vial Stopper (73828A-SS) with a Standard Aluminum Seal (SAS20NAT). […] MATRIX® was supplied as the US commercially available form.
Ovulation was monitored twice on Day 5 (8 hours and 16 hours post-treatment) and every 8 hours on Day 6 and Day 7 or until ovulation was confirmed or 176 hours following last MATRIX® feeding. The ovulatory status of all gilts was monitored by transrectal ultrasonography. An Aloka 500 ultrasound machine is used for this purpose, with a 7.5 MHz linear array transducer attached to a fixed-angle PVC stabilizing rod to facilitate insertion into the rectum. The transducer and PVC rod are coated with a gynecological lubricant and gently inserted into the rectum until the ovaries can be visualized, one at a time. The diameters of the three largest follicles were recorded (to the nearest 0.1 mm) at each scanning. A gilt was declared to have ovulated when the number of large follicles (≧6.5 mm) fell to less than 3.
A single 2 mL dose of triptorelin gel or vehicle gel was deposited within approximately 1-2 cm posterior to the cervix with a catheter similar to those used for artificial insemination. The dose was delivered using a standard multi-dose applicator attached to the catheter. A new disposable sheath, which surrounds the catheter, was used for each gilt.

With CC(C)C[C@H](NC(=O)[C@@H](Cc1c[nH]c2ccccc12)NC(=O)[C@H](Cc1ccc(O)cc1)NC(=O)[C@H](CO)NC(=O)[C@H](Cc1c[nH]c2ccccc12)NC(=O)[C@H](Cc1c[nH]cn1)NC(=O)[C@@H]1CCC(=O)N1)C(=O)N[C@@H](CCCNC(=N)N)C(=O)N1CCC[C@H]1C(=O)NCC(N)=O [T, pGlu-His-Trp-Ser-Tyr-D-Trp-Leu-Arg-Pro-Gly-NH2] the “Percentage ovulated by 48 hours” value (100 mcg T (n = 6)) was 100%, the “% of Sows Ovulating” value (100 mcg T, 128 h post-MATRIX (8 h post-T)) was 0.0% and the “% of Sows Ovulating” value (100 mcg T, 136 h post-MATRIX (16 h post-T)) was 5.0%. For the same compound, the “% of Sows Ovulating” value (100 mcg T, 144 h post-MATRIX (24 h post-T)) was 20.0%, the “% of Sows Ovulating” value (100 mcg T, 152 h post-MATRIX (32 h post-T)) was 30.0% and the “% of Sows Ovulating” value (100 mcg T, 160 h post-MATRIX (40 h post-T)) was 60.0%. The “% of Sows Ovulating” value (100 mcg T, 168 h post-MATRIX (48 h post-T)) was 95.0%, the “% of Sows Ovulating” value (100 mcg T, 176 h post-MATRIX (56 h post-T)) was 100.0% and the “Percentage ovulated by 48 hours” value (200 mcg T (n = 7)) was 100%. The “% of Sows Ovulating” value (200 mcg T, 128 h post-MATRIX (8 h post-T)) was 0.0%, the “% of Sows Ovulating” value (200 mcg T, 136 h post-MATRIX (16 h post-T)) was 0.0% and the “Percentage ovulated by 48 hours” value (400 mcg T (n = 6)) was 100%. The “% of Sows Ovulating” value (400 mcg T, 128 h post-MATRIX (8 h post-T)) was 4.5%, the “% of Sows Ovulating” value (400 mcg T, 136 h post-MATRIX (16 h post-T)) was 9.1% and the “% of Sows Ovulating” value (400 mcg T, 168 h post-MATRIX (48 h post-T)) was 100.0%. For the same compound, the “% of Sows Ovulating” value (400 mcg T, 176 h post-MATRIX (56 h post-T)) was 100.0%.

Source: patent publication US9724380B2, “Method and compositions for synchronizing time of insemination in gilts” (JBS UNITED ANIMAL HEALTH II LLC, priority 2012, dated 2017)
